Data from the NIST ThermoML archive (doi:10.1021/je700339f).

Experiment: xn = mol fraction of the nth substance listed
Conditions: 298 K, Liquid

ClCCCCCCCl [1,6-dichlorohexane] + CN(C)C=O
mass density [kg/m3]
Conditions	x2 = 0.0986	x2 = 0.2013	x2 = 0.3197	x2 = 0.4014	x2 = 0.5033	x2 = 0.6037	x2 = 0.7034	x2 = 0.8019	x2 = 0.9008
100 kPa	1056.4	1048.6	1038.2	1030.1	1019	1007.3	994.3	980	963.6
500 kPa	1056.6	1048.8	1038.4	1030.3	1019.3	1007.6	994.6	980.3	963.9
1000 kPa	–	1049.2	1038.8	1030.7	1019.6	1007.9	995	980.6	964.2
1100 kPa	1057.1	–	–	–	–	–	–	–	–
1500 kPa	1057.3	1049.6	1039.2	1031.1	1020	1008.2	995.3	980.9	964.5
2000 kPa	1057.7	1049.9	1039.5	1031.4	1020.3	1008.6	995.6	981.3	964.8
2500 kPa	1058	1050.2	1039.8	1031.7	1020.7	1008.9	995.9	981.6	965.1
2900 kPa	–	–	–	–	1021	–	–	–	–
3000 kPa	1058.4	1050.6	1040.2	1032.1	–	1009.2	996.3	981.9	965.4
3500 kPa	1058.7	1050.9	1040.5	1032.4	1021.3	1009.6	996.6	982.2	965.8
4000 kPa	1059.1	1051.3	1040.8	1032.8	1021.7	1009.9	996.9	982.6	966.1
4500 kPa	1059.4	1051.6	1041.2	1033.2	1022	1010.2	997.2	982.9	966.4
4900 kPa	–	–	–	–	–	–	–	983.2	–
5000 kPa	1059.8	1052	1041.5	1033.4	1022.3	1010.5	997.5	–	966.7
5500 kPa	1060.1	1052.3	1041.8	1033.8	1022.6	1010.9	997.8	983.5	967
5900 kPa	–	–	–	–	–	1011.2	–	–	–
6000 kPa	1060.4	1052.6	1042.2	1034.2	1023	–	998.2	983.9	967.3
6400 kPa	–	–	–	–	–	–	–	984.2	–
6500 kPa	1060.8	1053	1042.6	1034.5	1023.3	1011.5	998.5	–	967.7
6900 kPa	–	–	–	1034.8	–	–	–	–	967.8
7000 kPa	1061.1	1053.3	1042.9	–	1023.7	1011.9	998.8	984.5	–
7400 kPa	–	–	–	1035.1	–	–	–	–	–
7500 kPa	1061.5	1053.7	1043.2	–	1024	1012.2	999.1	984.8	968.2
7900 kPa	1061.8	–	–	–	–	–	–	–	–
8000 kPa	–	1054	1043.5	1035.5	1024.4	1012.6	999.5	985.1	968.5
8400 kPa	–	–	–	–	–	1012.8	–	985.4	968.8
8500 kPa	1062.2	1054.4	1043.8	1035.8	1024.6	–	999.8	–	–
8900 kPa	–	–	–	–	–	1013.1	–	–	–
9000 kPa	1062.5	1054.7	1044.2	1036.1	1025	–	1000.1	985.8	969.1
9400 kPa	–	–	–	–	–	–	–	–	969.4
9500 kPa	1062.8	1055.1	1044.5	1036.5	1025.3	1013.5	1000.4	986.1	–
10000 kPa	1063.1	1055.5	1044.9	1036.9	1025.7	1013.9	1000.8	986.4	969.8
10400 kPa	–	–	–	–	–	–	–	986.7	969.9
10500 kPa	1063.5	1055.8	1045.3	1037.2	1026	1014.2	1001.1	–	–
10900 kPa	1063.8	–	–	–	–	–	–	987	–
11000 kPa	–	1056.1	1045.5	1037.5	1026.4	1014.5	1001.4	–	970.3
11400 kPa	–	–	1045.8	–	–	1014.8	–	–	–
11500 kPa	1064.2	1056.4	–	1037.8	1026.7	–	1001.8	987.4	970.5
11900 kPa	–	–	–	–	–	1015.1	–	–	–
12000 kPa	1064.5	1056.8	1046.2	1038.2	1027	–	1002	987.6	970.8
12400 kPa	–	–	–	–	–	1015.4	–	–	971.1
12500 kPa	1064.9	1057.1	1046.5	1038.4	1027.3	–	1002.4	988	–
12900 kPa	1065.2	–	–	1038.8	–	–	–	–	–
13000 kPa	–	1057.4	1046.8	–	1027.6	1016	1002.7	988.2	971.3
13500 kPa	1065.5	1057.8	1047.2	1039.2	1028	1016.3	1003	988.6	971.6
13900 kPa	–	–	–	1039.5	–	–	–	–	–
14000 kPa	1065.8	1058.1	1047.5	–	1028.3	1016.6	1003.3	989	971.9
14400 kPa	–	–	–	–	–	1016.8	–	–	–
14500 kPa	–	1058.4	1047.8	1039.8	1028.6	–	1003.5	989.2	972.2
14600 kPa	1066.2	–	–	–	–	–	–	–	–
15000 kPa	1066.5	1058.7	1048.2	1040	1028.9	1017.3	1003.9	989.5	972.6
15400 kPa	–	–	–	–	1029.2	1017.6	–	–	–
15500 kPa	1066.9	1059	1048.6	1040.4	–	–	1004.2	989.8	972.8
15900 kPa	–	1059.3	–	1040.7	–	–	–	990.1	–
16000 kPa	1067.1	–	1048.8	–	1029.6	1018	1004.5	–	973.1
16400 kPa	–	1059.6	–	1041	–	–	–	–	–
16500 kPa	1067.4	–	1049	–	1030	1018.2	1004.8	990.4	973.4
17000 kPa	1067.8	1060	1049.4	1041.4	1030.3	1018.5	1005.1	990.7	973.7
17500 kPa	1068.2	1060.3	1049.7	1041.7	1030.5	1018.8	1005.4	990.9	974
17900 kPa	–	–	1050	–	–	–	–	991.2	–
18000 kPa	1068.5	1060.6	–	1042	1030.9	1019.1	1005.6	–	974.3
18500 kPa	1068.8	1060.9	1050.3	1042.3	1031.2	1019.4	1005.9	991.5	974.7
19000 kPa	1069.2	1061.2	1050.7	1042.6	1031.5	1019.8	1006.3	991.9	975.1
19400 kPa	–	1061.5	–	–	–	–	–	–	–
19500 kPa	1069.5	–	1051	1042.9	1031.8	1020.1	1006.6	992.2	975.4
20000 kPa	1069.8	1062	1051.5	1043.2	1032.2	1020.5	1007	992.5	975.8
